Source: ChEMBL document CHEMBL1132822, “2,4,5-Trisubstituted imidazoles: novel nontoxic modulators of P-glycoprotein mediated multidrug resistance. Part 2” (Bioorg Med Chem Lett, 2000)

Legend:
[1] = target: ATP-dependent translocase ABCB1 (Homo sapiens, UniProt P08183); test: Modulation of Pgp (P-glycoprotein) mediated multidrug resistance in CEM / VLB 1000 cell line; type: functional, cell-based, CCRF-CEM; conditions: read-out: ED50 (the source's name)
[2] = Half life in Dog plasma at a dosage 5 mg/kg after intravenous administration; type: ADME, organism-based, Canis lupus familiaris; design: dose 5 mg/kg, route intravenous
Canis familiaris = test: (§1) Oral bioavailability in dog (dose 10 mg/kg); type: functional, organism-based; conditions: Canis lupus familiaris
[3] = as §1; type: ADME, organism-based, Canis lupus familiaris; conditions: in vivo
Homo sapiens = test: Compound concentration in plasma of healthy human (male) after 3-4h of 400 mg dose of compound given orally; type: functional

Sequence of ATP-dependent translocase ABCB1 (P08183 whole entry): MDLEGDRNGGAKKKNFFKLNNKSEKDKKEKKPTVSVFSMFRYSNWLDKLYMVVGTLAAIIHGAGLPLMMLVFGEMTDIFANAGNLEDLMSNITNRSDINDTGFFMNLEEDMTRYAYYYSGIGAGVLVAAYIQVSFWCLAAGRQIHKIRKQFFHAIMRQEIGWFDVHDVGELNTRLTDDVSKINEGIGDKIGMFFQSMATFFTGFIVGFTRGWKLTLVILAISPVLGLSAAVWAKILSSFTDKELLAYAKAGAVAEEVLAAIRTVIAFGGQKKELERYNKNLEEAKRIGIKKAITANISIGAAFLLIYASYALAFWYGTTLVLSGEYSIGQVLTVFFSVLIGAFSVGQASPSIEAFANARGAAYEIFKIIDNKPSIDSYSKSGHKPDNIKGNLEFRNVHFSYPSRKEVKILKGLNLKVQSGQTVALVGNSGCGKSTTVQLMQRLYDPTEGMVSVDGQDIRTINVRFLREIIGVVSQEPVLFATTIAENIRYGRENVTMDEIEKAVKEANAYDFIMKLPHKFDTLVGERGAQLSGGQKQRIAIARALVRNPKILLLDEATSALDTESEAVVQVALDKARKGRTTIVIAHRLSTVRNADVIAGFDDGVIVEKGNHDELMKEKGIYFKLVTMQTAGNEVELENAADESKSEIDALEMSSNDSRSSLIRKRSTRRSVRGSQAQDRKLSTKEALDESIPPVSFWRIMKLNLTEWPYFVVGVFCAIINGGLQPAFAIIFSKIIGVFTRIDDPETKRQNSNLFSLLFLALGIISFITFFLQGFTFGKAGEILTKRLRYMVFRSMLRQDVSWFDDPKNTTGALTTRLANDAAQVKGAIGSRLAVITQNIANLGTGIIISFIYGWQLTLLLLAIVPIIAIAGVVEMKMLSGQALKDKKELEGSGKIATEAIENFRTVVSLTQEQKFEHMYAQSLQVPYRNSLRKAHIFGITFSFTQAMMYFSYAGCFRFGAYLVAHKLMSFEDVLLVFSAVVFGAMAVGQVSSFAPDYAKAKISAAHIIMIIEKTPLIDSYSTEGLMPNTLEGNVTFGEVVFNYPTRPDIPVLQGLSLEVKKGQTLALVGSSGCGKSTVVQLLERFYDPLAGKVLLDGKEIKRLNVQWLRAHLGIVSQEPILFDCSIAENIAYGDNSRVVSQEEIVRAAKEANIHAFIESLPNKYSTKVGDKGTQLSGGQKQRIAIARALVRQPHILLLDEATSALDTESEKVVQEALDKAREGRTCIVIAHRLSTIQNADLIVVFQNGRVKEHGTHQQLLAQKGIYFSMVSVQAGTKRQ

SMILES	EC50 [1] [nM]	also measured
CNc1ccc(-c2nc(-c3ccc(/C=C/C(=O)OC)cc3)[nH]c2-c2ccc(NC)cc2)cc1	200	
CCCN(CCC)c1ccc(-c2[nH]c(-c3ccc(/C=C/C(=O)OC)cc3)nc2-c2ccc(NC)cc2)cc1	180	
CCOC/C=C/c1ccc(-c2nc(-c3ccc(NC(C)C)cc3)c[nH]2)cc1	340	
CCCN(CCC)c1ccc(-c2c[nH]c(-c3ccc(/C=C/COCC)cc3)n2)cc1	280	
COC(=O)/C=C/c1ccc(-c2nc(-c3ccc(N(C)C)cc3)c(-c3ccc(N(C)C)cc3)[nH]2)cc1	300	
CCOC/C=C/c1ccc(-c2nc(-c3ccc(NC(C)C)cc3)c(-c3ccc(NC)cc3)[nH]2)cc1	50	half-life [2]: 1.35 h; bioavailability (Canis familiaris): 36%
COC(=O)/C=C/c1ccc(-c2nc(-c3ccc(N4CCCC4)cc3)c(-c3ccc(N4CCCC4)cc3)[nH]2)cc1	370	
CCOC/C=C/c1ccc(-c2nc(-c3ccc(F)cc3)c(-c3ccc(NC(C)C)cc3)[nH]2)cc1	160	half-life [2]: 1.27 h; bioavailability (Canis familiaris): 45%
CCN(CC)c1ccc(-c2[nH]c(-c3ccc(/C=C/C(=O)OC)cc3)nc2-c2ccc(NC)cc2)cc1	70	
CCN(CC)c1ccc(-c2[nH]c(-c3ccc(/C=C/C(=O)OC)cc3)nc2-c2ccc(N)cc2)cc1	310	
CCOC/C=C/c1ccc(-c2nc(-c3ccc(N(C)C)cc3)c(-c3ccc(N(C)C)cc3)[nH]2)cc1	80	bioavailability [3]: 35%; half-life [2]: 0.5 h
CCOC/C=C/c1ccc(-c2nc(-c3ccc(N4CCOCC4)cc3)c(-c3ccc(N4CCOCC4)cc3)[nH]2)cc1	220	
CNc1ccc(-c2[nH]c(-c3ccc(/C=C/C(=O)OC)cc3)nc2-c2ccc(N(C)C)cc2)cc1	130	
CCOC/C=C/c1ccc(-c2nc(-c3ccc(NCC(C)C)cc3)c[nH]2)cc1	250	
CCNc1ccc(-c2[nH]c(-c3ccc(/C=C/COCC)cc3)nc2-c2ccc(NC(C)C)cc2)cc1	50	
CCOC/C=C/c1ccc(-c2nc(-c3ccc(N(CC)CC)cc3)c(-c3ccc(N(CC)CC)cc3)[nH]2)cc1	260	
COC(=O)/C=C/c1ccc(-c2nc(-c3ccc(N)cc3)c(-c3ccc(N(C)C)cc3)[nH]2)cc1	590	
CCOC/C=C/c1ccc(-c2nc(-c3ccc(NC(C)C)cc3)c(-c3ccc(NC(C)C)cc3)[nH]2)cc1	50	Concentration (Homo sapiens): 3 µM; half-life [2]: 2.79 h; bioavailability (Canis familiaris): 41%
CCCCN(CCCC)c1ccc(-c2[nH]c(-c3ccc(/C=C/C(=O)OC)cc3)nc2-c2ccc(NC)cc2)cc1	2100	
CCOC/C=C/c1ccc(-c2nc(-c3ccc(N4CCOCC4)cc3)c[nH]2)cc1	370	
CCN(CC)c1ccc(-c2nc(-c3ccc(/C=C/C(=O)OC)cc3)[nH]c2-c2ccc(N(CC)CC)cc2)cc1	570	
C=CCN(CC=C)c1ccc(-c2nc(-c3ccc(/C=C/C(=O)OC)cc3)[nH]c2-c2ccc(N(CC=C)CC=C)cc2)cc1	5500	
CNc1ccc(-c2[nH]c(-c3ccc(/C=C/C(=O)OC)cc3)nc2-c2ccc(NC(C)C)cc2)cc1	120	
CCOC/C=C/c1ccc(-c2nc(-c3ccc(NC)cc3)c(-c3ccc(N4CCCC4)cc3)[nH]2)cc1	150	
CCOCC/C=C/c1ccc(-c2nc(-c3ccc(NC)cc3)c(-c3ccc(N(CC)CC)cc3)[nH]2)cc1	60	
CCOC/C=C/c1ccc(-c2nc(-c3ccc(N(CC)CC)cc3)c[nH]2)cc1	300	
CNc1ccc(-c2[nH]c(-c3ccc(/C=C/CCOC)cc3)nc2-c2ccc(N(C)C)cc2)cc1	110	
